The compounds below were run against Bcl-2 (Homo sapiens, UniProt P10415) (assay: Homogeneous HTS assay for inhibitors of the Bcl-2 : Bak (72-87) BH3 domain interaction, fluorescence polarisation (2D-FIDA)). Settings: fluorescence polarisation, fluorescent labelled Bak BH3 domain derived peptide; read-out: IC50 [μM] Bcl-2.
Format: binding
From the text: FIG. 1 is a schematic drawing of the Bcl-2: Bak (72-87) interaction assay based on fluorescence polarisation.
The homogeneous HTS assay for inhibitors of the Bcl-2 is shown schematically in FIG. 1. BH3 domain interaction is based on fluorescence polarisation. The inherent rotational diffusion of the Bak BH3 domain derived fluorescent labelled peptide decreases upon binding to Bc1-2. This shift in rotational diffusion is quantitated using the two-dimensional fluorescence intensity distribution analysis (2D-FIDA; Kask et al. 2000, Biophys. J. 78: 1703-1713).
Two different BH3 domain derived peptide ligands were synthesised and subsequently fluorescently labelled: • a 16mer peptide covering amino acids 72-87 of the Bak protein; this peptide had been used by Wang and co-workers and Holinger and coworkers in their Bcl-2 protein binding studies; Wang and co-workers reported an equilibrium binding constant KD of ˜0.2 μM to Bcl-2 protein; • peptide sequence: GQVGRQLAIIGDDINR—N (Wang et al. 2002, Proc. Natl. Acad. Sci. U.S.A. 97: 7124-7129; Holinger et al. 1999, J. Biol. Chem. 274: 13298-13304).

Sequence of Bcl-2 (P10415 whole entry, species assumed, the tested form may be a part): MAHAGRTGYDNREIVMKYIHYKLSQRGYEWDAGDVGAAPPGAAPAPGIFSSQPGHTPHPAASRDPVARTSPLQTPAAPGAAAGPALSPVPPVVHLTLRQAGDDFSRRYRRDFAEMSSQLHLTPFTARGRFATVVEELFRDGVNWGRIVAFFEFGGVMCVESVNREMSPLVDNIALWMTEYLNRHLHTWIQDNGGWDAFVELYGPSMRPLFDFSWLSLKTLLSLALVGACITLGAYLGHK

Structure (SMILES) | IC50
Cc1ccc2c(c1)n(Cc1ccc(N3CCN(Cc4ccccc4-c4ccccc4)CC3)cc1)c(=N)n2CCCOc1ccc(F)cc1 [Compound 62, 3-[4-(4-Biphenyl-2-ylmethyl-piperazin-1-yl)-benzyl]-1-[3-(4-fluoro-phenoxy)-propyl]-5-methyl-1,3-dihydro-benzoimidazol-2-ylideneamine] | < 10 µM
N=c1n(CCCOc2ccc(F)cc2)c2ccc(F)cc2n1Cc1ccc(N2CCN(Cc3ccccc3-c3ccccc3)CC2)cc1 [Compound 63, 3-[4-(4-Biphenyl-2-ylmethyl-piperazin-1-yl)-benzyl]-5-fluoro-1-[3-(4-fluoro-phenoxy)-propyl]-1,3-dihydro-benzoimidazol-2-ylideneamine] | 11 to 100 µM
CC1(C)CCC(c2ccc(Cl)cc2)=C(CN2CCN(c3ccc(Cn4c(=N)n(CCCOc5ccc(F)cc5)c5ccc(F)cc54)cc3)CC2)C1 [Compound 64, 3-(4-{4-[2-(4-Chloro-phenyl)-5,5-dimethyl-cyclohex-1-enylmethyl]-piperazin-1-yl}-benzyl)-5-fluoro-1-[3-(4-fluoro-phenoxy)-propyl]-1,3-dihydro-benzoimidazol-2-ylideneamine] | < 10 µM
CCOC(=O)c1cccc(OCCCn2c(=N)n(Cc3ccc(Br)cc3)c3ccccc32)c1 [Compound 65, 3-{3-[3-(4-Bromo-benzyl)-2-imino-2,3-dihydro-benzoimidazol-1-yl]-propoxy}-benzoic acid ethyl ester] | 11 to 100 µM
COC(=O)c1ccc(OCCCn2c(=N)n(Cc3ccc(Br)cc3)c3ccccc32)cc1 [Compound 66, 4-{3-[3-(4-Bromo-benzyl)-2-imino-2,3-dihydro-benzoimidazol-1-yl]-propoxy}-benzoic acid methyl ester] | 11 to 100 µM
COC(=O)c1ccc(OCCCn2c(=N)n(Cc3cccc(Br)c3)c3ccccc32)cc1 [Compound 67, 4-{3-[3-(3-Bromo-benzyl)-2-imino-2,3-dihydro-benzoimidazol-1-yl]-propoxy}-benzoic acid methyl ester] | 11 to 100 µM
CCOC(=O)c1cccc(OCCCn2c(=N)n(Cc3cccc(Br)c3)c3ccccc32)c1 [Compound 68, 3-{3-[3-(3-Bromo-benzyl)-2-imino-2,3-dihydro-benzoimidazol-1-yl]-propoxy}-benzoic acid ethyl ester] | 11 to 100 µM
CCOC(=O)c1cccc(OCCCn2c(=N)n(Cc3ccc(N4CCN(Cc5ccccc5-c5ccccc5)CC4)cc3)c3ccccc32)c1 [Compound 69, 3-(3-{3-[4-(4-Biphenyl-2-ylmethyl-piperazin-1-yl)-benzyl]-2-imino-2,3-dihydro-benzoimidazol-1-yl}-propoxy)-benzoic acid ethyl ester] | < 10 µM
N=c1n(CCCOc2cccc(C(=O)O)c2)c2ccccc2n1Cc1ccc(N2CCN(Cc3ccccc3-c3ccccc3)CC2)cc1 [Compound 70, 3-(3-{3-[4-(4-Biphenyl-2-ylmethyl-piperazin-1-yl)-benzyl]-2-imino-2,3-dihydro-benzoimidazol-1-yl}-propoxy)-benzoic acid] | < 10 µM
CCOC(=O)c1cccc(OCCCn2c(=N)n(Cc3ccccc3)c3ccccc32)c1 [Compound 71, 3-[3-(3-Benzyl-2-imino-2,3-dihydro-benzoimidazol-1-yl)-propoxy]-benzoic acid ethyl ester] | 11 to 100 µM
N=c1n(CCCOc2ccc(F)cc2)c2ccccc2n1Cc1cccc(C(=O)O)c1 [Compound 72, 3-{3-[3-(4-Fluoro-phenoxy)-propyl]-2-imino-2,3-dihydro-benzoimidazol-1-ylmethyl}-benzoic acid] | 11 to 100 µM
CCOC(=O)c1cccc(OCCCn2c(=N)n(Cc3ccc(N4CCN(Cc5ccccc5-c5ccc(Cl)cc5)CC4)cc3)c3ccccc32)c1 [Compound 73, 3-[3-(3-{4-[4-(4′-Chloro-biphenyl-2-ylmethyl)-piperazin-1-yl]-benzyl}-2-imino-2,3-dihydro-benzoimidazol-1-yl)-propoxy]-benzoic acid ethyl ester] | < 10 µM
N=c1n(CCCOc2cccc(C(=O)O)c2)c2ccccc2n1Cc1ccc(N2CCN(Cc3ccccc3-c3ccc(Cl)cc3)CC2)cc1 [Compound 74, 3-[3-(3-{4-[4-(4′-Chloro-biphenyl-2-ylmethyl)-piperazin-1-yl]-benzyl}-2-imino-2,3-dihydro-benzoimidazol-1-yl)-propoxy]-benzoic acid] | < 10 µM
CC1(C)CCC(c2ccc(Cl)cc2)=C(CN2CCN(c3cccc(Cn4c(=N)n(CCCOc5cccc(C(=O)O)c5)c5ccccc54)c3)CC2)C1 [Compound 75, 3-{3-[3-(3-{4-[2-(4-Chloro-phenyl)-5,5-dimethyl-cyclohex-1-enylmethyl]-piperazin-1-yl}-benzyl)-2-imino-2,3-dihydro-benzoimidazol-1-yl]-propoxy}-benzoic acid] | < 10 µM
N=c1n(Cc2cccc(Br)c2)c2ccccc2n1CC(O)COc1ccc(F)cc1 (centres unmarked) [Compound 76, 1-[3-(3-Bromo-benzyl)-2-imino-2,3-dihydro-benzoimidazol-1-yl]-3-(4-fluoro-phenoxy)-propan-2-ol] | 11 to 100 µM
N=c1n(Cc2ccc(Br)cc2)c2ccccc2n1CC(O)COc1ccc(F)cc1 (centres unmarked) [Compound 77, 1-[3-(4-Bromo-benzyl)-2-imino-2,3-dihydro-benzoimidazol-1-yl]-3-(4-fluoro-phenoxy)-propan-2-ol] | < 10 µM

Structure (SMILES) | IC50
N=c1n(Cc2ccccc2)c2ccccc2n1CC(O)COc1ccccc1 (centres unmarked) [Compound 78, 1-(3-Benzyl-2-imino-2,3-dihydro-benzoimidazol-1-yl)-3-phenoxy-propan-2-ol] | 11 to 100 µM
Cc1ccccc1OCC(O)Cn1c(=N)n(Cc2ccccc2)c2ccccc21 (centres unmarked) [Compound 79, 1-(3-Benzyl-2-imino-2,3-dihydro-benzoimidazol-1-yl)-3-o-tolyloxy-propan-2-ol] | 11 to 100 µM
N=c1n(Cc2ccccc2)c2ccccc2n1CC(O)COc1ccc(Cl)cc1 (centres unmarked) [Compound 80, 1-(3-Benzyl-2-imino-2,3-dihydro-benzoimidazol-1-yl)-3-(4-chloro-phenoxy)-propan-2-ol] | 11 to 100 µM
N=c1n(Cc2ccccc2)c2ccccc2n1CC(O)COc1ccc([N+](=O)[O-])cc1 (centres unmarked) [Compound 81, 1-(3-Benzyl-2-imino-2,3-dihydro-benzoimidazol-1-yl)-3-(4-nitro-phenoxy)-propan-2-ol] | 11 to 100 µM
N=c1n(Cc2cccc(N3CCN(Cc4ccccc4-c4ccccc4)CC3)c2)c2ccccc2n1CC(O)COc1ccc(F)cc1 (centres unmarked) [Compound 82, 1-{3-[3-(4-Biphenyl-2-ylmethyl-piperazin-1-yl)-benzyl]-2-imino-2,3-dihydro-benzoimidazol-1-yl}-3-(4-fluoro-phenoxy)-propan-2-ol] | < 10 µM
N=c1n(Cc2ccc(N3CCN(Cc4ccccc4-c4ccccc4)CC3)cc2)c2ccccc2n1CC(O)COc1ccc(F)cc1 (centres unmarked) [Compound 83, 1-{3-[4-(4-Biphenyl-2-ylmethyl-piperazin-1-yl)-benzyl]-2-imino-2,3-dihydro-benzoimidazol-1-yl}-3-(4-fluoro-phenoxy)-propan-2-ol] | < 10 µM
N=c1n(CCCOc2cccc(C(=O)O)c2)c2ccccc2n1Cc1cccc(Br)c1 [Compound 84, 3-{3-[3-(3-Bromo-benzyl)-2-imino-2,3-dihydro-benzoimidazol-1-yl]-propoxy}-benzoic acid] | 11 to 100 µM
N=c1n(CCCOc2cccc(C(=O)O)c2)c2ccccc2n1Cc1ccc(Br)cc1 [Compound 85, 3-{3-[3-(4-Bromo-benzyl)-2-imino-2,3-dihydro-benzoimidazol-1-yl]-propoxy}-benzoic acid] | 11 to 100 µM
CS(=O)(=O)NC(=O)c1cccc(OCCCn2c(=N)n(Cc3cccc(Br)c3)c3ccccc32)c1 [Compound 86, N-(3-{3-[3-(3-Bromo-benzyl)-2-imino-2,3-dihydro-benzoimidazol-1-yl]-propoxy}-benzoyl)-methanesulfonamide] | < 10 µM
N=c1n(CCCOc2ccc(Br)cc2)c2ccccc2n1Cc1ccccc1 [Compound 87, 1-Benzyl-3-[3-(4-bromo-phenoxy)-propyl]-1,3-dihydro-benzoimidazol-2-ylideneamine] | 11 to 100 µM
COc1ccc(OCC(O)Cn2c(=N)n(Cc3ccccc3)c3ccccc32)cc1 (centres unmarked) [Compound 88, 1-(3-Benzyl-2-imino-2,3-dihydro-benzoimidazol-1-yl)-3-(4-methoxy-phenoxy)-propan-2-ol] | 11 to 100 µM
COc1ccccc1OCC(O)Cn1c(=N)n(Cc2ccccc2)c2ccccc21 (centres unmarked) [Compound 89, 1-(3-Benzyl-2-imino-2,3-dihydro-benzoimidazol-1-yl)-3-(2-methoxy-phenoxy)-propan-2-ol] | 11 to 100 µM
N=c1n(Cc2ccccc2)c2ccccc2n1CC(O)c1ccco1 (centres unmarked) [Compound 91, 2-(3-Benzyl-2-imino-2,3-dihydro-benzoimidazol-1-yl)-1-furan-2-yl-ethanol] | > 100 µM
N=c1n(Cc2ccccc2)c2ccccc2n1CC(O)c1ccccc1 (centres unmarked) [Compound 92, 2-(3-Benzyl-2-imino-2,3-dihydro-benzoimidazol-1-yl)-1-phenyl-ethanol] | > 100 µM
CCCCn1c(=N)n(CC(O)COc2ccccc2OC)c2ccccc21 (centres unmarked) [Compound 93, 1-(3-Butyl-2-imino-2,3-dihydro-benzoimidazol-1-yl)-3-(2-methoxy-phenoxy)-propan-2-ol] | > 100 µM
Cc1ccccc1Cn1c(=N)n(CCCOc2ccccc2)c2ccccc21 [Compound 94, 1-(2-Methyl-benzyl)-3-(3-phenoxy-propyl)-1,3-dihydro-benzoimidazol-2-ylideneamine] | 11 to 100 µM

— patent US8759520B2, “Compounds for treating cancer” (Boehringer Ingelheim International GmbH, priority 2008, dated 2014)
